Measured values taken from US20100204328A1, “Solution and Method to Reduce, Treat and/or Prevent Oxidative Stress and Cell Activation” (priority 2006, published 2010).
Where two headings read alike, the source gives them in different places.

How the values were obtained:
[1] = system: Interleukin 6; experiment: IL-6 expression in LPS-incubated whole blood by flow cytometry; type: cell-based; conditions: whole blood with LPS, substance added directly or after 2 hrs, measured after 4 hrs; for expression of IL6: FIG. 21
Description: Further we analyzed intracellular IL-6 concentrations—indicator of proinflammatory cell activation—by flow cytometry and by this we were also able to analyze the percentage of […]/activated cells, see FIG. 20. Shown are the results for intracellular IL-6. Further data were generated to show: • (1) That use of LPS as primary stimulus instead of PMA (i.e. other cell activation pathway) is inducing similar activation pattern. LPS could stand for a septic/bacterial infection environment instead of a pro-oxidative environment. • (2) That additional and more complete interventions in the pathophysiological sequence through scavengers reduces also the expression of cellular surface markers like CD11b (an indicator of enhanced adhesion to vascular walls).
Whole blood was incubated with LPS; ethyl pyruvate and N-acetyl-cysteine, respectively were added directly or after 2 hrs. Expression of Interleukin 6 was measured after 4 hrs with flow cytometer, see FIG. 21.

[2] = system: WBC; experiment: Reduction of ROS during perfusion through hollow fiber minimodule; type: cell-based, human; conditions: scavenger added to dialysis fluid, counter current, single pass, FIG. 19
Procedure: WBC were isolated from human blood donation. Cells were stimulated by PMA and after one hour incubation a fluorescence dye (H2DCF-DA) was added to the cells and incubated for another 25 mins. The cell suspension was pumped single pass through a hollow fiber minimodule. On the dialysate pathway dialysis fluid with or without radical scavenger was pumped in counter current. Fluorescence was measured at the dialyzer inlet and outlet and fluorescence reduction in the filter was calculated. Negative control: PBS-buffer without radical scavenger as dialysis fluid, see FIG. 19.

[3] = system: White blood cells (WBC); experiment: Inhibition of cell activation/ROS-generation by addition of free radical scavengers (H2DCF-DA fluorescence); type: cell-based, human; conditions: WBC preincubated 30-60 minutes, PMA or LPS stimulus, FIG. 15
Procedure: Other macromolecules with SH sites could also be applied.
White blood cells (WBC) were isolated from freshly donated human whole blood. This was done by collecting whole blood from healthy donors on Heparin anticoagulation. Leukocytes were isolated out of the whole blood with the help of an isolation gradient (Polymorphprep). Isolated Leukocytes were diluted in PBS or RPMI 1640 cell culture media and a concentration of 2×10^6/ml was chosen. The cells were stored at 37° in 5% CO2. The cells were preincubated with the substances at 37° C. for 30-60 minutes. Afterwards the cells were stimulated with 50 ng/ml PMA or 30 EU/ml LPS. For ROS-measurement a fluorescence dye (dichlorodihydrofluorescein-diacetate, H2DCF-DA) was added at 10 μM final concentration. The cells were incubated with the substance, the fluorescence dye and the activator for 2 hrs and the fluorescence intensity kinetics was measured over time. To compare the result between two substances, the fluorescence intensity at a certain time point, e.g. 30 minutes) was recorded. For comparison the fluorescence at a certain time is shown in the diagram in FIG. 15.

[4] = system: CD11b; experiment: CD11b expression of granulocytes in LPS-incubated whole blood by flow cytometry; type: cell-based; conditions: LPS 10/100 U/ml 45 minutes, then substance 4 hrs, FIG. 22
Procedure: Whole blood was incubated with LPS (10/100 U/ml) for 45 minutes. Ethyl pyruvate, N-acetyl-cysteine and gluconate were added to the stimulated system and incubated for 4 hrs. CD11b Expression of granulocytes was measured with flow cytometry, see FIG. 22.

[5] = system: ROS; experiment: ROS-inhibition with pre-incubation versus post-incubation (pre-stimulation) of cells; type: cell-based; conditions: single substances, FIGS. 31 to 34
Procedure: Therefore, the ROS-inhibition was tested in two different applications:
1. Pre-incubation (activation of cells after incubation with a substance or combination of substances according to the invention)
2. Post-incubation (addition of a substance or a combination of substances according to the invention after cell activation)
All substances or combinations thereof were tested in the same concentration ranges as in the screening of the combinations as described before.

[6] = FIG. 25; cited from earlier work
[7] = cited from earlier work
[8] = system: isolated Leukocytes; experiment: Design-of-experiments screening of antioxidants: intracellular free radical formation in PMA-stimulated isolated leukocytes (96-well plate, fluorescence kinetics); type: cell-based, human; conditions: model, other substances on a medium level, FIG. 9
Procedure: An often discussed therapeutic intervention is the addition of substances with antioxidative properties to balance the oxidative/antioxidative system. In our work we performed a systematic screening of such antioxidants, see FIG. 2. The screening was done in a 96-well-plate setup where isolated Leukocytes from healthy donors were pre-incubated with antioxidants for 1 hour. The chosen substances were N-acetyl-cysteine (NAC), gluconic acid (GA), glutathione (GSH) and vitamin […] fluorescence dye was added as a marker for intracellular free radical formation. Afterwards the cells were stimulated by phorbol-myristate-acetate (PMA) and free radical formation was recorded as fluorescence signal over time. The dye in this assay is membrane-permeable and non-fluorescent when it is added. Diffusing once into the cell, enzymes convert it to a readily oxidizable fluorescence dye and the intracellular formation of free radicals can be measured. In order to perform a systematic screening of these substances we would have had to carry out a lot of experiments. Due to the lack of blood donors we chose the methodology of design of experiments, see FIG. 3. Here an experimental plan is generated on statistical basis and a mathematical model can be established. In our case we chose a Centrum Composite Circumscribed-Design (CCC), which is a combination of a full-factorial and a Central Composite-Design (CCD) with a center point. Every single experiment was carried out three times. Besides saving many experiments an additional advantage is the consideration of interactions and quadratic influences. The software tool Mode generates the experimental plan where the combinations of the substances vary according to the chosen CCC-Design, see FIG. 4. Out of the measured fluorescence kinetics a free-radical-inhibition-ratio was calculated and implemented. A ratio of 1 relates to 100% inhibition of free radical formation. The obtained data was fitted by multiple linear regression analysis, see FIG. 5. The influence of single substances, its quadratic terms and interactions between the substances are considered in the shown equation. The quality of the model fit is defined in the summary plot. R^2 stands for regression, Q^2 for prediction quality, MV for model validity and Rep for reproducibility. […] The model has to be further optimised. To identify a model-weakness a closer look into the model is required.

[9] = system: WBC; experiment: Inhibition of cell activation/ROS-generation by free radical scavengers via the membrane; type: cell-based, human; conditions: low flux membrane, incubation 60 mins, PMA, FIG. 17
Procedure: WBC were isolated from human blood donation. Cells were separated by a membrane from the second compartment which comprises a buffer-system containing a radical scavenger (incubation time 60 mins). Afterwards a fluorescence dye (H2DCF-DA) was added to the cells and incubated for 25 mins. Finally stimulation of WBCs was performed by PMA and fluorescence was measured over time, see FIG. 17.
Positive control: with stimulus (2nd compartment PBS-buffer),
Negative control: without stimulus (2nd compartment PBS-buffer)

| SMILES | number of IL-6 positive cells [1] | expression of IL6 [1] | free radicals on the blood side in the dialyzer and in the intracellular compartment [2] | free radical formation [3] | expression of CD11b adhesion marker [4] | ROS inhibition [5] | influence of the concentration of a single substance on the ROS-Inhibition ratio [8] | other results |
| --- | --- | --- | --- | --- | --- | --- | --- | --- |
| CC(=O)N[C@@H](CS)C(=O)O [N-acetyl-cysteine] | reduce the number of IL-6 positive cells | reduce the expression of IL6 | free radicals are reduced | able to inhibit free radical formation | reduce expression of CD11b adhesion marker | 60-80% | quadratic character | plasma level at which first beneficial effects could be shown [6]: 12 µM; tolerability of rather high plasma levels ([7]; application as an antidote in acute situations): well tolerated; plasma levels ([7]; intravenous application, compared with oral): higher plasma levels; bioavailability ([7]; oral application): poor bioavailability; plasma levels ([7]; oral application): 3000 to 30000 nM |
| CC(=O)N[C@H]1C(O)O[C@H](CO)[C@@H](O)[C@@H]1O (stereo partly drawn) [N-acetyl-glucosamine] | – | – | – | able to inhibit free radical formation | – | – | – | – |
| N[C@@H](CCC(=O)N[C@@H](CS)C(=O)NCC(=O)O)C(=O)O [glutathione] | – | – | – | able to inhibit free radical formation | – | 55-65% | negative gradient with increasing concentration | – |
| O=C(O)[C@H](O)[C@@H](O)[C@H](O)[C@H](O)CO [gluconic acid] | – | – | – | able to inhibit free radical formation | reduce expression of CD11b adhesion marker | 15-30% | quadratic character | free radical formation, scavenger acting through the membrane [9]: capable to inhibit |
| CCOC(=O)C(C)=O [ethyl pyruvate] | reduce the number of IL-6 positive cells | reduce the expression of IL6 | free radicals are reduced | – | reduce expression of CD11b adhesion marker | – | – | – |
| O=C1O[C@H]([C@@H](O)CO)C(O)=C1O [vitamin C] | – | – | – | – | – | 20-80% | negative gradient with increasing concentration | – |
